From ChEMBL document CHEMBL3882732, “4,5-diaryl-3(2H)-furanone derivatives as cyclooxygenase-2 inhibitors” (2002)

Legend:
Rattus norvegicus [1] = experiment: Anti-inflammatory activity in Sprague-Dawley rat model of […] Freund's adjuvant-induced arthritis assessed as inhibition of adjuvant-induced arthritis dosed through oral gavage daily once beginning on day 14 after adjuvant injection and continued till day 22 after adjuvant injection by displacement plethysmometry; type: functional
[2] = biological target: T1, Prostaglandin G/H synthase 1 (Mus musculus, UniProt P22437); experiment: Inhibition of COX1 in C57BL/6 mouse peritoneal macrophages assessed as reduction in PGE2 formation pre-incubated for 2 hrs followed by arachidonic acid addition and measured after 10 mins by radio-immuno assay or enzyme-immunoassay
T1 sequence (P22437 whole entry): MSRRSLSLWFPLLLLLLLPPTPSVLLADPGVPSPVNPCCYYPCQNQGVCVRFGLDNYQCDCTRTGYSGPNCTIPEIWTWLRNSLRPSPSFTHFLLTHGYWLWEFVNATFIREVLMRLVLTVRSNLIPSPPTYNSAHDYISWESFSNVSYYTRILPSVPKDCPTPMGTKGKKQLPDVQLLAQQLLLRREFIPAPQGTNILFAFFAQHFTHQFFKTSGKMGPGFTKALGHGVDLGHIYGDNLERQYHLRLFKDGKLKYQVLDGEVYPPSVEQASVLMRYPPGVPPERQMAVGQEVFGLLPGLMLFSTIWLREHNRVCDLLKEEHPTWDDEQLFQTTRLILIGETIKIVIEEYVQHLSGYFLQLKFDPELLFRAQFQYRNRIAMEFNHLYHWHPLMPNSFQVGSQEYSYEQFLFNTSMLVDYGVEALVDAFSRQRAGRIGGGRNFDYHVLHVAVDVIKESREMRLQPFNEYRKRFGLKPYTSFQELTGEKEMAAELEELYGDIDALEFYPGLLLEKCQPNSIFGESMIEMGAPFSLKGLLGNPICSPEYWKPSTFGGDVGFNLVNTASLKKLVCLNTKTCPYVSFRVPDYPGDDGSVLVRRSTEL

Mus musculus = experiment: Analgesic activity in ICR mouse assessed as reduction in number of abdominal constrictions dosed through oral gavage one hr before acetic acid challenge measured after 6 mins post acetic acid challenge by acetic acid-induced writhing test; type: functional; conditions: Abdomen, 0.1 h
[3] = Drug metabolism in Sprague-Dawley rat blood assessed as sulfoxide to sulfonyl bio-transformation by measuring compound-62 level at 10 mg/kg dosed through oral gavage measured after 24 to 48 hrs by HPLC method; type: ADME, organism-based; conditions: in vivo
[4] = Drug level in Sprague-Dawley rat blood treated with 4-(3-Chlorophenyl)-2,2-dimethyl-5-{4-(methylsulfinyl)phenyl}-3(2H)-furanone at 10 mg/kg dosed through oral gavage assessed as sulfoxide to sulfonyl bio-transformation by measuring compound level measured after 24 to 48 hrs by HPLC method; type: ADME, organism-based; conditions: in vivo
[5] = biological target: T2, Prostaglandin G/H synthase 2 (Mus musculus, UniProt Q05769); experiment: Inhibition of COX2 in C57BL/6 mouse peritoneal macrophages assessed as reduction in PGE2 formation pre-incubated for 2 hrs before LPS stimulation for 16 hrs followed by arachidonic acid addition and measured after 10 mins in presence of 500 uM aspirin by radio-immuno assay or enzyme-immunoassay
T2 sequence (Q05769 whole entry): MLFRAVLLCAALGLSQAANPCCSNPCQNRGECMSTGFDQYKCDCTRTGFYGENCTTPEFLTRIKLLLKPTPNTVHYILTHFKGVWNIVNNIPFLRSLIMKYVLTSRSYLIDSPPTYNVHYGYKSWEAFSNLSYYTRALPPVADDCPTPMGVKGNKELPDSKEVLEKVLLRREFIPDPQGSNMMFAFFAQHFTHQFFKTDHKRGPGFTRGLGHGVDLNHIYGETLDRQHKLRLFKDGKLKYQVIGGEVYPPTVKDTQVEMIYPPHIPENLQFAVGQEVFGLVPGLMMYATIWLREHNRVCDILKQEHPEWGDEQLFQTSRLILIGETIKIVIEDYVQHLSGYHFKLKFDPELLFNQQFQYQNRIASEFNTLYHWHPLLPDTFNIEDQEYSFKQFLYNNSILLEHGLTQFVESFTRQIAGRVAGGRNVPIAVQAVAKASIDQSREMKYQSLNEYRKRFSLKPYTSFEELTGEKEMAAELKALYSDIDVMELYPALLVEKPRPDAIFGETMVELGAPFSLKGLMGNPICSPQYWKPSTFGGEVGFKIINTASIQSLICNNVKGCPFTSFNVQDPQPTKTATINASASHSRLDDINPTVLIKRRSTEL

Rattus norvegicus [6] = experiment: Anti-inflammatory activity in Sprague-Dawley rat assessed as inhibition of carrageenan-induced foot edema at 3 mg/kg dosed through oral gavage 1 hr before carrageenan challenge and measured 3 hrs after carrageenan challenge; type: functional

## CC1(C)OC(c2ccc(S(N)(=O)=O)cc2)=C(c2cccc(Cl)c2)C1=O
Rattus norvegicus [1]
  ED50: 0.03 mg/kg

## CC(C)c1ccc(C2=C(c3ccc(S(C)(=O)=O)cc3)OC3(CCCC3)C2=O)cc1
[2]
  IC50: 24.4 µM

## COc1ccc2c(c1)c(CC(=O)O)c(C)n2C(=O)c1ccc(Cl)cc1 [INDOMETHACIN]
Mus musculus
  ED50: 7.4 mg/kg

## C[S+]([O-])c1ccc(C2=C(c3cccc(Cl)c3)C(=O)C(C)(C)O2)cc1 (stereo not drawn)
[3]
  Drug metabolism: Metabolite_Detected

## CC1(C)OC(c2ccc(S(N)(=O)=O)cc2F)=C(c2ccc(F)cc2)C1=O
Rattus norvegicus [1]
  ED50: 0.09 mg/kg

## CC1(C)OC(c2ccc(S(C)(=O)=O)cc2)=C(c2cccc(Cl)c2)C1=O
[4]
  Drug metabolism: Metabolite_Detected

## CC(=O)c1cccc(C2=C(c3ccc(S(N)(=O)=O)cc3)OC(C)(C)C2=O)c1
[5]
  IC50: 0.0337 µM
[2]
  IC50: 8.98 µM

## CC1(C)OC(c2ccc(S(C)(=O)=O)cc2)=C(c2cccc(F)c2)C1=O
Rattus norvegicus [1]
  ED50: 0.07 mg/kg
Mus musculus
  ED50: 8.3 mg/kg

## C[S+]([O-])c1ccc(C2=C(c3cccc(F)c3)C(=O)C(C)(C)O2)cc1 (stereo not drawn)
[2]
  IC50: 29 µM

## CC1(C)OC(c2ccc(S(N)(=O)=O)c(F)c2)=C(c2ccc(F)cc2F)C1=O
Rattus norvegicus [6]
  inhibition in vivo at 3 mg/kg: 32%

## CC1(C)OC(c2ccc(S(C)(=O)=O)cc2)=C(c2cccc(C(F)(F)F)c2)C1=O
Rattus norvegicus [1]
  ED50: 0.06 mg/kg

## CC1(C)OC(c2ccc(S(N)(=O)=O)cc2)=C(c2cccc(F)c2)C1=O [POLMACOXIB]
Rattus norvegicus [1]
  ED50: 0.02 mg/kg
Mus musculus
  ED50: 12.3 mg/kg

## CC1(C)OC(c2ccc(S(C)(=O)=O)cc2)=C(c2cc(F)cc(F)c2)C1=O
Rattus norvegicus [1]
  ED50: 0.03 mg/kg

## C[S+]([O-])c1ccc(C2=C(c3ccc(F)cc3)C(=O)C(C)(C)O2)cc1 (stereo not drawn)
[5]
  IC50: 8.71 µM
[2]
  IC50: 87.1 µM
